Square brackets hold non-standard residues; d marks the D form. Primed or numbered codes have the meaning given here. Ends that are not written are not given here. PEG2′ = not defined here
What was measured:
[1] = tested on: rat with pulmonary fibrosis induced by bleomycin; assay: HE staining and alveolitis score of rat lung tissue (Example 4); format: in vivo; settings: 2.5 mg/kg peptide + 3 mg/kg bleomycin intratracheal; for inflammatory pathology score (degree of alveolitis, grade 0 to 3): vs BLM group, p<0.01, FIG. 3; for pathological changes in lung tissue (HE staining): vs model group, FIG. 2
Experimental: (§1) The rats were weighed before administration, intramuscularly injected with 65 mg/kg Zoletil anesthetic solution. After the rats entered the stage III anesthesia, the experimental rats were fixated in the lateral decubitus. Gavage needle size 12 was inserted into rat trachea through oral cavity along the glottis to instill with drug. The experimental animals were fed normally from the 1st day to the 7th day after intratracheal administration, and were weighed every day with feed and water ad libitum.
(§2) The rats in blank control group were received no treatment after anesthesia; the rats in model group (bleomycin) were intratracheally instilled with bleomycin (3 mg/kg); the rats in PBS control group were intratracheally instilled with an equal volume of sterile PBS buffer (0.01 M, pH=9.5); the rats in polypeptide control group were intratracheally instilled with 2.5 mg/kg of the polypeptide N2 (the solvent was 0.01 M, pH=9.5 PBS buffer); the rats in N2 treatment group were intratracheally instilled with 2.5 mg/kg of the polypeptide N2 and 3 mg/kg of bleomycin simultaneously, the rats in N3 treatment group were intratracheally instilled with 2.5 mg/kg of the polypeptide N3 and 3 mg/kg of bleomycin simultaneously.
The lung tissue of the rats of Example 2 was taken, fixed with 4% paraformaldehyde and embedded in paraffin. The wax block embedded the lung tissue was sectioned along the largest cross section. Pathological changes in lung tissue were observed using hematoxylin-eosin (HE) staining. Pathological changes in lung tissue were observed under a light microscope (low magnification) at a magnification of 100 times (the result is shown in FIG. 2).
According to the method provided by Szapie, et al., the degree of alveolitis was graded according to the range of lesions and could be divided into 0 to 3 grades, corresponding to 0 to 3 points. The evaluation indexes for the degree of alveolitis are as follows: grade 0, no alveolitis; grade 1, mild alveolitis, manifested as a slight increase in alveolar septum, infiltration of monocytes, near the pleura or localized, with a lesion range of less than 20% without alveolar structural damage; grade 2, moderate alveolitis, the lesion ranges from 20% to 50%, relatively severe near the pleura; grade 3, severe alveolitis, diffusely distributed, the lesion range is more than 50%, with pulmonary parenchymal lesion occasionally.

[2] = tested on: TGF-β/Smad signaling pathway; assay: Western blot of Smad protein in lung tissue homogenate (Example 8); format: in vivo, rat; settings: vs bleomycin group, 2.5 mg/kg peptide intratracheal; for levels of p-Smad2 and p-Smad3 proteins (grayscale value): p<0.05, FIG. 9; for intensities of the expression bands of p-Smad2 and p-Smad3 in lung tissue: GAPDH internal reference, FIG. 8
Experimental: as §1, §2
(§3) The rat lung tissue of Example 2 was taken, and the tissue was homogenized using RIPA lysate (100 mg of lung tissue corresponding to 1 mL of lysate), centrifuged and the supernatant was taken, and then the protein concentration was determined by BCA method. Equal amounts of protein samples were taken and Western blot experiment was performed using anti-GAPDH, anti-p-Smad2 and anti-p-Smad3 antibodies (the result is shown in FIG. 8).
The grayscale value of each band was detected and analyzed using Image pro plus 6.0 image analysis software (the result is shown in FIG. 9). […] The detection of grayscale value supported the above-mentioned description.

[3] = tested on: rat with pulmonary fibrosis induced by bleomycin; assay: Lung coefficient, bleomycin rat model (Examples 2-3); format: in vivo; settings: vs bleomycin group; 2.5 mg/kg peptide + 3 mg/kg bleomycin intratracheal, simultaneously; p<0.05; FIG. 1
Experimental: as §1, with “libitum. […]” for “libitum.”
The rats in Example 2 were weighed and sacrificed by anesthesia overdose. […] After the wet weight of the whole lung was weighted by the electronic balance, the lung coefficient was calculated according to the formula, lung coefficient=lung mass (mg)/body weight (g) (the result is shown in FIG. 1).

[4] = tested on: rat with pulmonary fibrosis induced by bleomycin; assay: Inflammatory cells in bronchoalveolar lavage fluid, Wright-Giemsa staining (Example 5); format: in vivo; settings: vs bleomycin group; 2.5 mg/kg peptide + 3 mg/kg bleomycin intratracheal; p<0.05; FIG. 4
Experimental: as §1, with “libitum. […]” for “libitum.”
Bronchoalveolar lavage fluid was collected, and […] by centrifugation. […] The counting method was: the number of macrophages, lymphocytes, and neutrophils was calculated according to the total number of inflammatory cells based on the respective proportion of macrophages, lymphocytes, and neutrophils in 100 intact cells (the result is shown in FIG. 4).

[5] = tested on: Fibronectin, Collagen I and Collagen III; assay: Western blot of extracellular matrix protein in lung tissue homogenate (Example 6); format: in vivo, rat; settings: vs bleomycin group, 2.5 mg/kg peptide intratracheal; for levels of Fibronectin, Collagen I and Collagen III proteins (grayscale value): p<0.05, FIG. 6; for intensities of the expression bands of Fibronectin, Collagen I and Collagen III in lung tissue: GAPDH internal reference, FIG. 5
Experimental: as §1, §2
as §3, with “and” for “and the tissue was”, “anti-Fibronectin, anti-Collagen I” for “anti-p-Smad2”, “anti-Collagen III” for “anti-p-Smad3”, “5).” for “8).”
The grayscale value of each band was detected and analyzed using Image pro plus 6.0 image analysis software (the result is shown in FIG. 6). […] The detection of grayscale value supported the above-mentioned description.

[6] = tested on: rat with pulmonary fibrosis induced by bleomycin; assay: Hydroxyproline content in lung tissue homogenate, alkali hydrolysis kit (Example 7); format: in vivo; settings: vs bleomycin group; 2.5 mg/kg peptide intratracheal; p<0.05; FIG. 7
Experimental: as §1, with “libitum. […]” for “libitum.”
The rats of Example 2 were taken, and the hydroxyproline content in lung tissue homogenate was detected using Boster Hydroxyproline Alkali Hydrolysis Assay Kit (Cat. No. A030) (the result is shown in FIG. 7).

[7] = tested on: TGF-β signaling pathway; assay: ctgf, Collagen I and Collagen III in lung tissue by RT-qPCR (Example 11); format: in vivo, rat; settings: vs model group; 6 mg/kg peptide + 3 mg/kg bleomycin intratracheal; 18S RNA reference; p<0.05; FIG. 11
Experimental: (§4) The rats were weighed before administration, intramuscular injection of Zoletil anesthetic solution, the dose was 65 mg/kg. After the rats entered the stage III anesthesia, the experimental rats were bond in the incline lateral decubitus. A size 12 gavage needle was inserted into rat trachea through oral cavity along the glottis to infuse the drug. The experimental animals were fed normally from the 1st day to the 14th day after intratracheal administration, and were weighed regularly every day without restriction of feed or drinking water. […]
The rat lung tissue in the model group, the control group and the N4 treatment group of Example 9 was taken. […] After obtaining cDNA using reverse transcription, fluorescence quantitative PCR (qPCR) kit (Applied Biosystems, Cat. No. 4319413E) was used to detect the expression levels of connective tissue growth factor ctgf (forward primer: 5′-[…]-3′, reverse primer: 5′-[…]-3′) downstream of the TGF-β pathway, Collagen I (forward primer: 5′-TGCCGATGTCGCTATCCA-3′, reverse primer: 5′-[…]-3′) and Collagen III (forward primer: 5′-[…]-3′, reverse primer: 5′-[…]-3′). […]

[8] = tested on: rat with pulmonary fibrosis induced by bleomycin; assay: Hydroxyproline content in lung tissue homogenate, acid hydrolysis (Example 12); format: in vivo; settings: vs model group; 6 mg/kg peptide + 3 mg/kg bleomycin intratracheal; p<0.05; FIG. 12
Experimental: The rats were weighed before administration, intramuscular injection of Zoletil anesthetic solution, the dose was 65 mg/kg. After the rats entered the stage III anesthesia, the experimental rats were bond in the incline lateral decubitus. A size 12 gavage needle was inserted into rat trachea through oral cavity along the glottis to infuse the drug. The experimental animals were fed normally from the 1st day to the 14th day after intratracheal administration, and were weighed regularly every day without restriction of feed or drinking water.
The rats in model group were intratracheally instilled with bleomycin (3 mg/kg); the rats in control group were intratracheally instilled with an equal volume of saline; the rats in treatment groups were intratracheally instilled with bleomycin (3 mg/kg) and corresponding therapeutic drug (6 mg/kg) simultaneously.
The lung tissue in the model group, the control group and the N4 treatment group of Example 9 was taken, and the hydroxyproline content in the lung tissue homogenate was detected using BioVision Hydroxyproline Acid Hydrolysis Assay Kit (Cat. No. K555-100) (the result is shown in FIG. 12), and one-way ANOVA was used for biostatistical analysis.

[9] = tested on: active TGF-β; assay: Active TGF-β in lung tissue by ELISA (Examples 9-10); format: in vivo, rat; settings: vs model group; 6 mg/kg peptide + 3 mg/kg bleomycin intratracheal; p<0.05; FIG. 10
Experimental: as §4
The rat lung tissue in the model group, the control group and the N4 treatment group of Example 9 was taken, and homogenized using RIPA lysate (100 mg of lung tissue corresponding to 1 mL of lysate), centrifuged and the supernatant was taken, and then the protein concentration was determined by BCA method. Equal amounts of protein samples were taken and the active TGF-β content was measured by enzyme-linked immunosorbent assay ELISA (Promega, Cat. No. G7591) (the result is shown in FIG. 10), and one-way ANOVA was used for biostatistical analysis.

| Substance | inflammatory pathology score (degree of alveolitis, grade 0 to 3) [1] | pathological changes in lung tissue (HE staining) [1] | levels of p-Smad2 and p-Smad3 proteins (grayscale value) [2] | intensities of the expression bands of p-Smad2 and p-Smad3 in lung tissue [2] | lung coefficients of the left lung, the right lung and the whole lung [3] | number of macrophages, heteromorphic nuclear cells and lymphocytes in bronchoalveolar lavage fluid [4] | levels of Fibronectin, Collagen I and Collagen III proteins (grayscale value) [5] | intensities of the expression bands of Fibronectin, Collagen I and Collagen III in lung tissue [5] | hydroxyproline content in lung tissue [6] | gene expression levels of ctgf, collagen I and collagen III in lung tissue [7] | hydroxyproline content in lung tissue [8] | content of active TGF-β in the lung tissue [9] |
| --- | --- | --- | --- | --- | --- | --- | --- | --- | --- | --- | --- | --- |
| (PEG2)TyrArgValArgPheLeuAlaLysGluAsnValThrGlnAspAlaGluAsp ([PEG2′]YRVRFLAKENVTQDAED; listed as Homo sapiens) [N3] | significant alleviation | a small amount of inflammatory cell infiltration in the interstitial | decreased significantly | almost returned to the level of the control group | decreased significantly | decreased significantly | decreased significantly | almost returned to the level of the control group | decreased significantly |  |  |  |
| RFLAKENVTQD [N4] |  |  |  |  |  |  |  |  |  | decreased significantly | decreased significantly | decreased significantly |
| YRVRFLAKENVTQDAED [N2] | significant alleviation | a small amount of inflammatory cell infiltration in the interstitial | decreased significantly | almost returned to the level of the control group | decreased significantly | decreased significantly | decreased significantly | almost returned to the level of the control group | decreased significantly |  |  |  |
